Experimental data published in patent US10988477B2 (Merck Patent GmbH, priority 2018, dated 2021).

Legend:
[1] = molecular target: GCN2 kinase (Homo sapiens, UniProt Q9P2K8); assay: GCN2 enzyme inhibition assay (Transcreener ADP2 fluorescence polarization); format: biochemical; details: compounds of Formula II; 280 μM ATP, 4 nM GCN2 kinase
How it was run: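 FP detection of ADP (antibody plus Alexa633 tracer) after a 1 h, 25 °C kinase reaction. Enzyme 4 nM, ATP 280 μM, (RS)7 peptide 200 μM, Tris pH 7.5 buffer with MgCl2 and DTT. Percent inhibition fitted by non-linear tight-binding algorithm for IC50 and Ki(app).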

[2] = molecular target: intracellular GCN2 (phosphorylation of the GCN2 substrate eIF2α) (Homo sapiens, UniProt Q9P2K8); assay: GCN2 cellular inhibition assay (AlphaScreen SureFire P-eIF2α Ser51, borrelidin-treated U2OS cells); format: cell-based; details: compounds of Formula II; biomarker assay, phosphorylated eIF2α Ser51 in borrelidin-treated U2OS cells
How it was run: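 Phospho-eIF2α (Ser51) in lysates was quantified by AlphaScreen SureFire after a 1 h, 37 °C treatment of U2OS cells with 10 μM borrelidin and compound at 4-fold dilutions starting from 40 μM final. Inhibition expressed in percent against wells stimulated by borrelidin alone.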

Sequence of GCN2 kinase (Q9P2K8 whole entry): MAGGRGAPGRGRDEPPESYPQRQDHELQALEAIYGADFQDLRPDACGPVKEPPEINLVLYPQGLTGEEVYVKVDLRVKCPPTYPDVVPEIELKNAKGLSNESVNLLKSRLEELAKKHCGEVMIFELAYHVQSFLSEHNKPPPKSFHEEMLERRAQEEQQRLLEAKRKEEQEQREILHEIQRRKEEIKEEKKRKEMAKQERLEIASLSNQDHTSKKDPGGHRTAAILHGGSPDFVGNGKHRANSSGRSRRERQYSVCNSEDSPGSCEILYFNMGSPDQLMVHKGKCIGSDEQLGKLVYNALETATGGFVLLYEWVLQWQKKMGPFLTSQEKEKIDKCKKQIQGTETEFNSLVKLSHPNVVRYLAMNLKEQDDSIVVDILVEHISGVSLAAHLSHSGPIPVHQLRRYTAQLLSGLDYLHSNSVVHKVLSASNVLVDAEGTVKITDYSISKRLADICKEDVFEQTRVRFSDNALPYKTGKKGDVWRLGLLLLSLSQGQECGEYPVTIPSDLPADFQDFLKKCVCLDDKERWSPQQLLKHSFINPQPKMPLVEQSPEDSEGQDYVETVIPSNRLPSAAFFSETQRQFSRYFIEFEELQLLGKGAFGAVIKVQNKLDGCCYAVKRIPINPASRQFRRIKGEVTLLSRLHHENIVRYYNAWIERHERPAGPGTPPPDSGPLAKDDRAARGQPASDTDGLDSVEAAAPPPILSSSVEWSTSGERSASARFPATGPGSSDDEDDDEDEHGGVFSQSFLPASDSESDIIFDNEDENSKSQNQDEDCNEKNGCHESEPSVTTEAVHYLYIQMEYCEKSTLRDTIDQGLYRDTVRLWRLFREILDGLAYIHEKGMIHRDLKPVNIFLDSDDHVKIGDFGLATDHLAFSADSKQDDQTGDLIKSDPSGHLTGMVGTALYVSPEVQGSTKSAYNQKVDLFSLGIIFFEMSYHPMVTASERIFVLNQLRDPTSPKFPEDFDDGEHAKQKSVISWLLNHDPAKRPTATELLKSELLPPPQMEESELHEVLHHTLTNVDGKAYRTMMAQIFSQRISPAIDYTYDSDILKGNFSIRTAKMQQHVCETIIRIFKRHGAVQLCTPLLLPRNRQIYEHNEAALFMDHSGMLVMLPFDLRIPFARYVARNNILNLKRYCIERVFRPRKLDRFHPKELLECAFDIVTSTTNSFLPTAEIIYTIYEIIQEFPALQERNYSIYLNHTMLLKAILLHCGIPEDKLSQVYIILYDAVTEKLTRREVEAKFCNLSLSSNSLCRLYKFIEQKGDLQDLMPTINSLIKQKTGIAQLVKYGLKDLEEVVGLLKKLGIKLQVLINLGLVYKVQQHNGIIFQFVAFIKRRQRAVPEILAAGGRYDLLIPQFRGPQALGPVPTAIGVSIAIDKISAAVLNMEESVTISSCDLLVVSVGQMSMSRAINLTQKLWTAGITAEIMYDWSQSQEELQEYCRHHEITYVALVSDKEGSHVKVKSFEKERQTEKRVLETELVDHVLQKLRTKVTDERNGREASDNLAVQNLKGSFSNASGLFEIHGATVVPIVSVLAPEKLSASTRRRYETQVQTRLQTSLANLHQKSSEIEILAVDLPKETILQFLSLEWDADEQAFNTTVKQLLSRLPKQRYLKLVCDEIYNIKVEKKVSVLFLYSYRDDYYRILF
Sequence of intracellular GCN2 (phosphorylation of the GCN2 substrate eIF2α) (Q9P2K8 whole entry): as above

SMILES	Ki [1] [nM]	IC50 [2] [nM]
CS(=O)(=O)NCC1CCCN(c2cc(-c3cnc4ccc(C(F)F)nn34)cc(N3CC4(CNC4)C3)n2)C1 (stereo not shown) [II-92, N-[[1-[6-(2,6-Diazaspiro[3.3]heptan-2-yl)-4-[6-(difluoromethyl)imidazo[1,2-b]pyridazin-3-yl]-2-pyridyl]-3-piperidyl]methyl]methanesulfonamide]	< 10	500 to 5000
CC1CN(c2ccnc(-c3cnc4ccc(C(F)F)nn34)c2)CC(CNS(C)(=O)=O)O1 (stereo not shown) [II-94, N-((4-(2-(6-(Difluoromethyl)imidazo[1,2-b]pyridazin-3-yl)pyridin-4-yl)-6-methylmorpholin-2-yl)methyl)methanesulfonamide]	< 10	< 500
CS(=O)(=O)NCC1CCCN(c2cc(-c3cnc4ccc(C(F)F)nn34)cc(N3CCNCC3)n2)C1 (stereo not shown) [II-96, N-((1-(4-(6-(Difluoromethyl)imidazo[1,2-b]pyridazin-3-yl)-6-(piperazin-1-yl)pyridin-2-yl)piperidin-3-yl)methyl)methanesulfonamide]	< 10	500 to 5000
CS(=O)(=O)N1CC2(CCCN(c3cncc(-c4cnc5ccc(C(F)F)nn45)c3)C2)C1 [II-101, 6-(Difluoromethyl)-3-(5-(2-(methylsulfonyl)-2,6-diazaspiro[3.5]nonan-6-yl)pyridin-3-yl)imidazo[1,2-b]pyridazine]	< 10	500 to 5000
CS(=O)(=O)NCC1CN(c2ccnc(-c3cnc4ccc(C(F)F)nn34)c2)CCC1(F)F (stereo not shown) [II-103, N-((1-(2-(6-(Difluoromethyl)imidazo[1,2-b]pyridazin-3-yl)pyridin-4-yl)-4,4-difluoropiperidin-3-yl)methyl)methanesulfonamide]	< 10	< 500
CC(NS(C)(=O)=O)C1CN(c2ccnc(-c3cnc4ccc(C(F)F)nn34)c2)CCO1 (stereo not shown) [II-105, N-(1-(4-(2-(6-(Difluoromethyl)imidazo[1,2-b]pyridazin-3-yl)pyridin-4-yl)morpholin-2-yl)ethyl)methanesulfonamide]	< 10	500 to 5000
FC(F)c1ccc2ncc(-c3ccnc(N4CCOC(c5cn[nH]c5)C4)c3)n2n1 (stereo not shown) [II-107, 4-(4-(6-(Difluoromethyl)imidazo[1,2-b]pyridazin-3-yl)pyridin-2-yl)-2-(1H-pyrazol-4-yl)morpholine]	10 to 1000	< 500
FC(F)c1ccc2ncc(-c3ccnc(N4CCOC(c5cn[nH]c5)C4)c3)n2n1 (stereo not shown) [II-108, 4-(4-(6-(Difluoromethyl)imidazo[1,2-b]pyridazin-3-yl)pyridin-2-yl)-2-(1H-pyrazol-4-yl)morpholine]	10 to 1000	500 to 5000
CS(=O)(=O)NC[C@H]1CCCN(c2cc(-c3cnc4ccc(C(F)F)nn34)cc(O)n2)C1 [II-111, (S)—N-((1-(4-(6-(Difluoromethyl)imidazo[1,2-b]pyridazin-3-yl)-6-oxo-1,6-dihydropyridin-2-yl)piperidin-3-yl)methyl)methanesulfonamide]	< 10	500 to 5000
CS(=O)(=O)NCC1CN(c2cc(-c3cnc4ccc(C(F)F)nn34)ncn2)CCC1O (stereo not shown) [II-112, N-((1-(6-(6-(Difluoromethyl)imidazo[1,2-b]pyridazin-3-yl)pyrimidin-4-yl)-4-hydroxypiperidin-3-yl)methyl)methanesulfonamide]	< 10	500 to 5000
OCCn1cc(-c2cc(-c3cnc4ccc(C(F)F)nn34)ccn2)cn1 [II-113, 2-(4-(4-(6-(Difluoromethyl)imidazo[1,2-b]pyridazin-3-yl)pyridin-2-yl)-1H-pyrazol-1-yl)ethanol]	10 to 1000	500 to 5000
CC(C)(NS(C)(=O)=O)C1CCCN(c2cc(-c3cnc4ccc(C(F)F)nn34)ccn2)C1 (stereo not shown) [II-114, N-(2-(1-(4-(6-(Difluoromethyl)imidazo[1,2-b]pyridazin-3-yl)pyridin-2-yl)piperidin-3-yl)propan-2-yl)methanesulfonamide]	10 to 1000	> 5000
CNc1cc(-c2cnc3ccc(C(F)F)nn23)cc(N2CCCC(CNS(C)(=O)=O)C2)n1 (stereo not shown) [II-116, N-((1-(4-(6-(Difluoromethyl)imidazo[1,2-b]pyridazin-3-yl)-6-(methylamino)pyridin-2-yl)piperidin-3-yl)methyl)methanesulfonamide]	< 10	500 to 5000
CS(=O)(=O)NCC1CCCN(c2cc(-c3cnc4ccc(C(F)F)nn34)cnc2C#N)C1 (stereo not shown) [II-117, N-((1-(2-Cyano-5-(6-(difluoromethyl)imidazo[1,2-b]pyridazin-3-yl)pyridin-3-yl)piperidin-3-yl)methyl)methanesulfonamide]	10 to 1000	500 to 5000
COc1cc(-c2cnc3ccc(C(F)F)nn23)cc(N2CCC[C@H](CNS(C)(=O)=O)C2)n1 [II-120, (S)—N-((1-(4-(6-(Difluoromethyl)imidazo[1,2-b]pyridazin-3-yl)-6-methoxypyridin-2-yl)piperidin-3-yl)methyl)methanesulfonamide]	< 10	> 5000
CS(=O)(=O)NCC1CCCN(c2cc(-c3cnc4ccc(C(F)F)nn34)cc(F)n2)C1 (stereo not shown) [II-122, N-((1-(4-(6-(Difluoromethyl)imidazo[1,2-b]pyridazin-3-yl)-6-fluoropyridin-2-yl)piperidin-3-yl)methyl)methanesulfonamide]	< 10	500 to 5000

More lines, now with the values ahead:

Ki [1] [nM]	IC50 [2] [nM]	SMILES
10 to 1000	500 to 5000	CS(=O)(=O)NCC1CN(c2cc(-c3cnc4ccc(C(F)F)nn34)ccn2)CCN1 (stereo not shown) [II-90, N-((4-(4-(6-(Difluoromethyl)imidazo[1,2-b]pyridazin-3-yl)pyridin-2-yl)piperazin-2-yl)methyl)methanesulfonamide]
10 to 1000	> 5000	CN1CCN(c2cc(-c3cnc4ccc(C(F)F)nn34)ccn2)CC1CO (stereo not shown) [II-97, (4-(4-(6-(Difluoromethyl)imidazo[1,2-b]pyridazin-3-yl)pyridin-2-yl)-1-methylpiperazin-2-yl)methanol]
10 to 1000	500 to 5000	CN1CCN(c2cc(-c3cnc4ccc(C(F)F)nn34)ccn2)CC1CNS(C)(=O)=O (stereo not shown) [II-98, N-((4-(4-(6-(Difluoromethyl)imidazo[1,2-b]pyridazin-3-yl)pyridin-2-yl)-1-methylpiperazin-2-yl)methyl)methanesulfonamide]
< 10	500 to 5000	CS(=O)(=O)NCC1COCCN(c2cc(-c3cnc4ccc(C(F)F)nn34)ccn2)C1 (stereo not shown) [II-99, N-((4-(4-(6-(Difluoromethyl)imidazo[1,2-b]pyridazin-3-yl)pyridin-2-yl)-1,4-oxazepan-6-yl)methyl)methanesulfonamide]
10 to 1000	> 5000	CS(C)(=O)=NC[C@@H]1CN(c2cc(-c3cnc4ccc(C(F)F)nn34)ccn2)CCO1 [II-102, [(2S)-4-[4-[6-(Difluoromethyl)imidazo[1,2-b]pyridazin-3-yl]-2-pyridyl]morpholin-2-yl]methylimino-dimethyl-oxo-sulfane]
10 to 1000	> 5000	CS(=N)(=O)CCC1CCCN(c2cc(-c3cnc4ccc(C(F)F)nn34)ccn2)C1 (stereo not shown) [II-104, (2-(1-(4-(6-(Difluoromethyl)imidazo[1,2-b]pyridazin-3-yl)pyridin-2-yl)piperidin-3-yl)ethyl)(imino)(methyl)-λ^6-sulfanone]
< 10	500 to 5000	CC(NS(C)(=O)=O)C1CN(c2cc(-c3cnc4ccc(C(F)F)nn34)ccn2)CCO1 (stereo not shown) [II-106, N-(1-(4-(4-(6-(Difluoromethyl)imidazo[1,2-b]pyridazin-3-yl)pyridin-2-yl)morpholin-2-yl)ethyl)methanesulfonamide]
10 to 1000	500 to 5000	CN(CC1CCCN(c2cc(-c3cnc4ccc(C(F)F)nn34)ccn2)C1)S(C)(=O)=O (stereo not shown) [II-109, N-((1-(4-(6-(Difluoromethyl)imidazo[1,2-b]pyridazin-3-yl)pyridin-2-yl)piperidin-3-yl)methyl)-N-methylmethanesulfonamide]
< 10	< 500	CS(=O)(=O)NC[C@@H]1CN(c2ccnc(-c3cnc4ccc(C(F)F)nn34)c2)CCO1 [II-110, (S)—N-((4-(2-(6-(Difluoromethyl)imidazo[1,2-b]pyridazin-3-yl)pyridin-4-yl)morpholin-2-yl)methyl)methanesulfonamide]
10 to 1000	500 to 5000	CC1(CNS(C)(=O)=O)CCCN(c2cc(-c3cnc4ccc(C(F)F)nn34)ccn2)C1 (stereo not shown) [II-115, N-((1-(4-(6-(Difluoromethyl)imidazo[1,2-b]pyridazin-3-yl)pyridin-2-yl)-3-methylpiperidin-3-yl)methyl)methanesulfonamide]
10 to 1000	500 to 5000	CC1CN(c2cc(-c3cnc4ccc(C(F)F)nn34)ccn2)CC(CNS(C)(=O)=O)O1 (stereo not shown) [II-118, N-((4-(4-(6-(Difluoromethyl)imidazo[1,2-b]pyridazin-3-yl)pyridin-2-yl)-6-methylmorpholin-2-yl)methyl)methanesulfonamide]
< 10	< 500	CC1CN(c2cc(-c3cnc4ccc(C(F)F)nn34)ccn2)CC(CNS(C)(=O)=O)O1 (stereo not shown) [II-119, N-((4-(4-(6-(Difluoromethyl)imidazo[1,2-b]pyridazin-3-yl)pyridin-2-yl)-6-methylmorpholin-2-yl)methyl)methanesulfonamide]
< 10	< 500	CS(=O)(=O)NC[C@@H]1CN(c2cc(-c3cnc4ccc(C(F)F)nn34)ccn2)CCO1 [II-121, N-[[(2S)-4-[4-[6-(Difluoromethyl)imidazo[1,2-b]pyridazin-3-yl]-2-pyridyl]morpholin-2-yl]methyl]methanesulfonamide]
